{"source": "patent US11821109B2", "about": "“Compartmentalised combinatorial chemistry by microfluidic control” (President and Fellows of Harvard College, priority 2004, dated 2023)", "key": {"[1]": {"assay": "Compartmentalisation of small molecules in water-in-fluorocarbon emulsions (exchange between microdroplets)", "type": "physicochemical", "conditions": "water-in-perfluorooctyl bromide emulsion; 24 hours after mixing", "protocol": "Water-in-fluorocarbon emulsions containing 95% (v/v) perfluorooctyl bromide, 5% (v/v) phosphate buffered saline containing the molecule of interest in solution, and 2% (w/v) C8F17C11H22OP(O)[N(CH2CH2)2O]2 (F8H1 IDMP) as surfactant were formed essentially as (Sadtler et al., 1996) by extrusion (15 times) through 14 μm filters (Osmonics) or by homogenising for 5 min at 25,000 r.p.m. using an Ultra-Turrax T8 Homogenizer (DCA) with a 5 mm dispersing tool. Emulsions were made containing a series of small fluorescent molecules dissolved in the aqueous phase at concentrations from […] to 2 mM. These molecules, including calcein, texas red, fluorescein, coumarin 102, 7-hydroxycoumarm-3-carboxylic acid and 7-diethylamino-4-methyl coumarin (coumarin 1), had molecular weights from 203 to 625 Da and Log P values—calculated using SRC's Log Kow/KowWin Program (Meylan and Howard, 1995)—ranging from −0.49 to 4.09. […]\nCompartmentalisation of small molecules in a water-in-fluorocarbon emulsions made using microfluidic systems. […] These molecules, including calcein, texas red, fluorescein, coumarin 102, 7-hydroxycoumarin-3-carboxylic acid and 7-diethylamino-4-methyl coumarin (coumarin 1), had molecular weights from 203 to 625 Da and Log P values—calculated using SRC's Log Kow/KowWin Program (Meylan and Howard, 1995)—ranging from −0.49 to 4.09. […]"}, "[2]": {"target": "T1, E. coli β-galactosidase (LacZ) (Escherichia coli, UniProt P00722)", "T1 sequence (P00722 2-1024)": "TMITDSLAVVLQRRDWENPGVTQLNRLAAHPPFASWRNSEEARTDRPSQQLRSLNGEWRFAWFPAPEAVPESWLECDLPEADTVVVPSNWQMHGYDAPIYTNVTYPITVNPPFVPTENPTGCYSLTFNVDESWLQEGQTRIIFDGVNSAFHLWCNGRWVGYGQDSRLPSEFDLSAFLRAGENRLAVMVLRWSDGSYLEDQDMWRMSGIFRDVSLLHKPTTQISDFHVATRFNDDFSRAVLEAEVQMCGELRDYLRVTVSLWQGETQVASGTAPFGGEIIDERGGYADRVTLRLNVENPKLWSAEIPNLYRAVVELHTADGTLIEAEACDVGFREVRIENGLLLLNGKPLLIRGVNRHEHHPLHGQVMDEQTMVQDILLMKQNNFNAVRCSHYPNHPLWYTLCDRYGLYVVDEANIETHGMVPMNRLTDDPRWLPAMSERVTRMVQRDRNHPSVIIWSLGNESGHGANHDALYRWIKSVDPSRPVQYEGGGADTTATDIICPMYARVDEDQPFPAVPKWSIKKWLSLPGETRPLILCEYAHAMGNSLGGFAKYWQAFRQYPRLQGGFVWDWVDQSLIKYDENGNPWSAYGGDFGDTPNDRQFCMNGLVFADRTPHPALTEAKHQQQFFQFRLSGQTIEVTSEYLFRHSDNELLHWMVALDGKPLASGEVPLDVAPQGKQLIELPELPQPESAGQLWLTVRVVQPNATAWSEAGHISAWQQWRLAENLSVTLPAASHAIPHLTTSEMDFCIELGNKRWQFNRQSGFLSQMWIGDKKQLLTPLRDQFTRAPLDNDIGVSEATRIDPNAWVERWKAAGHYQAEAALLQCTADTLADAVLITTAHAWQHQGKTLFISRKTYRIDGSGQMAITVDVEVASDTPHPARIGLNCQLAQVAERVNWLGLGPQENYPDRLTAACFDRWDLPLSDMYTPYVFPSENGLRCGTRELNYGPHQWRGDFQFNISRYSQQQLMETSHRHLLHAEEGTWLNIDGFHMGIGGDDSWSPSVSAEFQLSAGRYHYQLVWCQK", "assay": "LacZ inhibition assay in microfluidic droplets with fluorogenic substrate FMG", "type": "biochemical", "protocol": "In the enzyme inhibition assay, the rate of catalysis is determined by using a non-fluorescent substrate for LacZ, fluorescein mono-β-D-galactoside (FMG), and measuring the appearance of the fluorescent product, fluorescein (excitation […], emission 514 nm). All components of the LacZ inhibition assay are dissolved in assay buffer (10 mM MgCl2, 50 mM NaCl, 1 mM DTT, 100 μg/ml BSA, 10\nLeading into each droplet forming module (FIG. 15) are two TEFLON® tubes leading from syringe pumps. The channels leading from each tube merge to create a single flow before entering the droplet forming module. The two syringes feeding into the first droplet forming module contain, (a) 50 μM PETG in assay buffer, and (b), assay buffer. The two syringes feeding into the second droplet forming module contain, (c) 100 nM LacZ in assay buffer, and (d), assay buffer. The two syringes feeding into the third droplet forming module contain, (e) 5 mM FMG in assay buffer, and (f), assay buffer. The final concentration of each component in each droplet is independently controllable by adjusting relative flow rates of each component and buffer solution while maintaining a constant combined flow rate from both syringes.\nThe first droplet fusion mixes the inhibitor (PETG) with the enzyme (LacZ). After the combined droplet has spent two minutes in a delay line it is fused with a third droplet containing the fluorogenic enzyme substrate (FMG). Finally, after all the components are mixed the reaction is observed by measuring fluorescence of individual droplets or by integrating fluorescent light from droplets with the same concentration of each component during 10-second exposure time at multiple points in the second 10 min long delay line. Each fluorescence intensity value at different positions is proportional to the amount of product at different reaction times. Rate of product formation is linear during initial reaction time and initial rate (v) can be determined from linear fitting. […]"}, "[3]": {"target": "T1, E. coli β-galactosidase (LacZ)", "conditions": "Huang, 1991, cited from earlier work"}, "[4]": {"target": "T2, human recombinant PTP1B, residues 1-322 (Homo sapiens, UniProt P18031)", "T2 construct": "human recombinant PTP1B, residues 1-322; purchased Biomol Research Laboratories, Inc", "T2 sequence (P18031 1-322)": "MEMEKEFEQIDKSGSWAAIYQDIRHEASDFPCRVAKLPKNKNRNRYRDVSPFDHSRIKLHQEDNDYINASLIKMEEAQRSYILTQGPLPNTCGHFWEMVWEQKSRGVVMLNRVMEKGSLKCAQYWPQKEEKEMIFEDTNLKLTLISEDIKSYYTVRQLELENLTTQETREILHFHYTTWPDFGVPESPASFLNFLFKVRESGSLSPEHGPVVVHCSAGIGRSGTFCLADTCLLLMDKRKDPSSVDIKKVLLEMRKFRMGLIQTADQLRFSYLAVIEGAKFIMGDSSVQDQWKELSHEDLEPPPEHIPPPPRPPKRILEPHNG", "assay": "Screening for PTP1B inhibitors in microcapsules in a microfluidic system, fluorogenic substrate DiFMUP", "type": "biochemical", "conditions": "Example 2, 100 μM compound solution, PTP1B 50 mU/ml", "protocol": "All water-soluble reagents are dissolved in (25 mM HEPES, pH 7.4, 125 mM NaCl, 1 mM EDTA), a buffer compatible with PTP1B activity. […] Each microcapsule containing target enzyme is fused with a microcapsule containing compound 2 or a microcapsule containing hydrocinnamic acid. Microcapsules containing either compound 2 or hydrocinnamic acid can be formed by switching between injection with syringes containing compound 2 and hydrocinnamic acid.\nAfter microcapsule fusion the contents are rapidly mixed. After this point the microcapsules are run for up to 1 min through a 60 cm long microchannel (to allow inhibitor binding). This microchannel is then merged with a second microchannel containing aqueous microcapsules containing the fluorogenic PTP1B substrate 6,8-difluoro-4-methylumbelliferyl phosphate (DiFMUP) (Molecular Probes) in 25 mM HEPES, pH 7.4, 125 mM NaCl, 1 mM EDTA and the microcapsules fused pairwise. […] Fluorescence of the microcapsules due to production of DiFMU (excitation/emmission maxima 358/452 nm; blue fluorescence) is measured. […]\nThe 96 mixtures are distributed into 96 wells of a microtitre plate. […] Inhibitors reduce the amount of non-fluorescent substrate (DiFMUP) converted to the dephosphorylated product (DiFMU; excitation/emmission maxima 358/452 nm; blue fluorescence). Microcapsule fluorescence is then analysed."}, "PTP1B": {"target": "T3, PTP1B (Homo sapiens, UniProt P18031)", "T3 sequence (P18031 1-435)": "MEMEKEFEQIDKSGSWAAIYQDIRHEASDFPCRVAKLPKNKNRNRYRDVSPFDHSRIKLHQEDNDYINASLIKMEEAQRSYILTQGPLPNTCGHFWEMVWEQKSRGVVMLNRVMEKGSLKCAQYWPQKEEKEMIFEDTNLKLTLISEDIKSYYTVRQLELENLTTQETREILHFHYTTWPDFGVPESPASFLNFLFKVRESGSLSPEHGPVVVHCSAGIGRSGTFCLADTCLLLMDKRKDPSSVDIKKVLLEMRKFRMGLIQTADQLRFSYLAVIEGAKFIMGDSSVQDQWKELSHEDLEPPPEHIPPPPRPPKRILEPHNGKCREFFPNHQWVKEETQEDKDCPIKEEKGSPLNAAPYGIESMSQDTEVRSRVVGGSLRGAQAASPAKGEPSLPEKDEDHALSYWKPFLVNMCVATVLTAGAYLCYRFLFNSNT", "conditions": "cited from earlier work"}, "[5]": {"conditions": "30 nM LacZ, 0 to 13 μM PETG, 10 to 700 μM FMG"}}, "data": [{"compound": "O=C(O)CN(CC(=O)O)Cc1cc2c(cc1O)Oc1cc(O)c(CN(CC(=O)O)CC(=O)O)cc1C21OC(=O)c2ccccc21", "note": "[calcein]", "values": [{"measurement": "Exchange between microdroplets/compartments", "setting": "[1]", "result": "No exchange"}]}, {"compound": "texas red", "values": [{"measurement": "Exchange between microdroplets/compartments", "setting": "[1]", "result": "No exchange"}]}, {"compound": "OCC1OC(SCCc2ccccc2)C(O)C(O)C1O", "note": "[PETG, phenylethyl β-D-thiogalactopyranoside]", "values": [{"measurement": "Ki of PETG for LacZ as determined", "setting": "[2]; [5]", "result": "within the range of the previously published value"}, {"measurement": "Mode of inhibition", "setting": "[2]; Lineweaver-Burk plot", "result": "competitive"}, {"measurement": "Ki", "setting": "[3]; read-out: Ki of PETG for LacZ, previously published value", "result": 980, "unit": "nM"}]}, {"compound": "O=C1OC2(c3ccc(O)cc3Oc3cc(O[C@@H]4O[C@H](CO)[C@H](O)[C@H](O)[C@H]4O)ccc32)c2ccccc21", "note": "(stereo partly drawn) [FMG, fluorescein mono-β-D-galactoside]", "values": [{"measurement": "XM of FMG for LacZ as determined", "setting": "[2]; [5]", "result": "within 20% of the previously published value"}, {"measurement": "XM of FMG for LacZ, previously published value", "setting": "[3]", "result": 118, "unit": "µM"}]}, {"compound": "O=C(O)CCc1ccccc1", "note": "[hydrocinnamic acid]", "values": [{"measurement": "Fluorescence of the microcapsules due to production of DiFMU", "setting": "[4]", "result": "exhibiting blue fluorescence"}, {"measurement": "PTP1B inhibitor or not (statement)", "setting": "PTP1B", "result": "not a PTP1B inhibitor"}]}]}
